According to article PMC5797802, “The A2B Adenosine Receptor Modulates the Epithelial– Mesenchymal Transition through the Balance of cAMP/PKA and MAPK/ERK Pathway Activation in Human Epithelial Lung Cells” (Frontiers in Pharmacology, 2018):

What was measured:
[1] = target: T1, A2B adenosine receptor (A2BAR) (Homo sapiens, UniProt P29275); test: reversal at […] of BAY […]-6583-induced cAMP and ERK1/[…] phosphorylation in A549 cells; type: cell-based
T1 construct: gene ADORA2B
T1 sequence (P29275 1-332): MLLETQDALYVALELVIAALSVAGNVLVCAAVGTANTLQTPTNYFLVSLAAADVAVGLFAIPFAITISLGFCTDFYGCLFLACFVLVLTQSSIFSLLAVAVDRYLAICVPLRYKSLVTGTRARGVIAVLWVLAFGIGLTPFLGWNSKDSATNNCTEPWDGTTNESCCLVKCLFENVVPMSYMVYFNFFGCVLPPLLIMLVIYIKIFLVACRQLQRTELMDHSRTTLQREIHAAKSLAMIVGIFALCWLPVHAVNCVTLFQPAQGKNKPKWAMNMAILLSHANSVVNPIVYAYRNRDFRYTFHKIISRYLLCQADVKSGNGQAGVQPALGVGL

[2] = target: T1, A2B adenosine receptor (A2BAR); test: agonist-induced cAMP production (AlphaLISA) in A549 cells with endogenous receptor; effect reversed by MRS […]; type: cell-based

Row | SMILES | reversal at 1 μM of BAY 60-6583-induced cAMP and ERK1/2 phosphorylation in A549 [1] | EC50 [2]
1 | CCCn1c(=O)c2[nH]c(-c3ccc(OCC(=O)Nc4ccc(C(C)=O)cc4)cc3)nc2n(CCC)c1=O [MRS1706, N-(4-acetylphenyl)-2-[4-(2,3,6,7-tetrahydro-2,6-dioxo-1,3-dipropyl-1H-purin-8-yl)phenoxy]-acetamide] | The effects evoked by A2BAR stimulation were almost completely reversed by the A2BAR inverse agonist MRS1706 | 
2 | N#Cc1c(N)nc(SCC(N)=O)c(C#N)c1-c1ccc(OCC2CC2)cc1 [BAY 60-6583, 2-[6-amino-3,5-dicyano-4-[4-(cyclopropylmethoxy)phenyl]pyridin-2-ylsulfanyl] acetamide] |  | 17.2 ± 2.5 nM
